Measurements published in ChEMBL document CHEMBL5331060, “Bisindole natural products: A vital source for the development of new anticancer drugs” (Eur J Med Chem, 2022).
In brackets after ≈: the same amount, converted by molar mass.

Assays:
Assay type in all cases: functional, cell-based
MCF7 [1] = experiment: Antiproliferative activity against human MCF7 cells assessed as inhibition of cell growth incubated for 72 hrs by SRB assay; settings: MCF7, 72 h
A549 [2] = experiment: Antiproliferative activity against human A549 cells assessed as inhibition of cell growth incubated for 72 hrs by SRB assay; settings: A549, 72 h
K562 [3] = experiment: Antiproliferative activity against human K562 cells assessed as inhibition of cell growth by MTT assay
A549 [4] = experiment: Antiproliferative activity against human A549 cells assessed as inhibition of cell growth by MTT assay
K562 [5] = experiment: Antiproliferative activity against human K562 cells assessed as inhibition of cell growth incubated for 48 hrs by WST-1 assay; settings: K562, 48 h
HL-60 [6] = experiment: Antiproliferative activity against human HL-60 cells assessed as inhibition of cell growth incubated for 48 hrs by WST-1 assay; settings: HL-60, 48 h
MCF7 [7] = experiment: Antiproliferative activity against human MCF7 cells assessed as inhibition of cell growth incubated for 48 hrs by MTT assay; settings: MCF7, 48 h
HL-60 [8] = experiment: Antiproliferative activity against human HL-60 cells assessed as inhibition of cell growth incubated for 48 hrs by MTT assay; settings: HL-60, 48 h
SW480 = experiment: Antiproliferative activity against human SW480 cells assessed as inhibition of cell growth incubated for 48 hrs by MTT assay; settings: SW480, 48 h
A549 [9] = experiment: Antiproliferative activity against human A549 cells assessed as inhibition of cell growth incubated for 48 hrs by MTT assay; settings: A549, 48 h
SMMC-7721 = experiment: Antiproliferative activity against human SMMC-7721 cells assessed as inhibition of cell growth incubated for 48 hrs by MTT assay; settings: SMMC-7721, 48 h
AGS = experiment: Antiproliferative activity against human AGS cells assessed as inhibition of cell growth incubated for 24 hrs by MTT assay
L1210 = experiment: Antiproliferative activity against mouse L1210 cells assessed as inhibition of cell growth incubated for 24 hrs by MTT assay; settings: L1210, 24 h

Compound: CC[C@@H]1CN(C)[C@H]2Cc3c([nH]c4ccccc34)[C@H](c3ccc4c5c([nH]c4c3)[C@@H]3C[C@@H]4C[C@H](CC)[C@@H]3N(CC5)[C@@H]4CC(C)=O)C[C@H]1[C@@H]2C(=O)OC
- IC50 (MCF7 [1]): < 10 µM
- IC50 (A549 [2]): < 10 µM

Compound: O=C(NCC(=O)c1c[nH]c2ccccc12)NC(=O)c1c[nH]c2cc(O)ccc12
- IC50 (K562 [3]): > 90 µM
- IC50 (A549 [4]): > 90 µM

Compound: CCC(=O)[C@H](O)[C@@H]1CN(C=O)CCc2c([nH]c3ccccc23)[C@@](C(=O)OC)(c2cc3c(cc2OC)N(C)[C@H]2[C@@](O)(C(=O)OC)[C@H](OC(C)=O)[C@]4(CC)C=CCN5CC[C@]32[C@@H]54)C1
- IC50 (K562 [5]): > 100 µM
- IC50 (HL-60 [6]): > 100 µM

Compound: C/C=C1/CN2COC[C@]3(C(=O)OC)[C@@H]1C[C@@H](c1cccc4c5c([nH]c14)[C@]1(C(=O)OC)C[C@@H]4C[C@H](CC)[C@@H]1N(CC5)[C@@H]4CC(C)=O)c1[nH]c4ccccc4c1C[C@]23C
- IC50 (MCF7 [7]): 2.9 µM
- IC50 (HL-60 [8]): 2.9 µM
- IC50 (SW480): 2.9 µM
- IC50 (A549 [9]): 2.9 µM
- IC50 (SMMC-7721): 2.9 µM

Compound: C/C=C1/CN(C)[C@@]2(C)Cc3c([nH]c4ccccc34)[C@H](c3c(OC)ccc4c3NC3[C@@]4(O)CCN4C[C@H]5C[C@H](CC)[C@H]4[C@@]3(C(=O)OC)C5)C[C@H]1[C@]2(COC(C)=O)C(=O)OC (stereo partly specified)
- IC50 (MCF7 [7]): 2.9 µM
- IC50 (HL-60 [8]): 2.9 µM
- IC50 (SW480): 2.9 µM
- IC50 (A549 [9]): 2.9 µM
- IC50 (SMMC-7721): 2.9 µM

Compound: CC[C@@H]1CN(C)[C@H]2Cc3c([nH]c4ccccc34)[C@H](c3c(OC)ccc4c5c([nH]c34)[C@]3(C(=O)OC)C[C@@H]4C[C@H](CC)[C@@H]3N(CC5)[C@@H]4CC(C)=O)C[C@H]1[C@@H]2C(=O)OC
- IC50 (MCF7 [1]): 10.9 µM
- IC50 (A549 [2]): 10.9 µM

Compound: CC[C@@H]1CN(C)[C@H]2Cc3c([nH]c4ccccc34)[C@H](c3cc4c5c([nH]c4cc3OC)[C@@]3(C(=O)OC)C[C@H]4C[C@@H](CC)[C@@H]3N(CC5)C4)C[C@H]1[C@@H]2C(=O)OC
- IC50 (MCF7 [1]): < 10 µM
- IC50 (A549 [2]): > 10 µM

Compound: CC[C@@H]1CN(C)[C@H]2Cc3c([nH]c4ccccc34)[C@H](c3ccc4[nH]c5c(c4c3)CCN3C[C@@H]4C[C@@H](CC)[C@H]3[C@@H]5C4)C[C@H]1[C@@H]2C(=O)OC
- IC50 (MCF7 [1]): < 10 µM
- IC50 (A549 [2]): < 10 µM

Compound: CC(=O)C[C@@H]1c2c([nH]c3ccccc23)[C@H](c2c[nH]c3ccccc23)[C@H]1C(C)=O
- IC50 (K562 [3]): 2.2 µM

Compound: CO[C@@]1(C(=O)c2c[nH]c3ccccc23)N=C(c2c[nH]c3cc(Br)ccc23)C(=O)N1
- IC50 (K562 [3]): 24.2 µM
- IC50 (A549 [4]): 24.2 µM

Compound: CC[C@@H]1CN(C)[C@H]2Cc3c([nH]c4ccccc34)[C@H](c3cc4[nH]c5c(c4cc3OC)CCN3[C@H](CC(C)=O)[C@H]4C[C@H](CC)[C@H]3[C@@]5(C(=O)OC)C4)C[C@H]1[C@@H]2C(=O)OC
- IC50 (MCF7 [1]): < 10 µM
- IC50 (A549 [2]): > 10 µM

Compound: CC[C@]12CN3CC[C@@]45C(=Nc6ccccc64)[C@@](C(=O)OC)(c4cc6c(cc4OC)N(C)[C@H]4[C@@](O)(C(=O)OC)[C@H](OC(C)=O)[C@]7(CC)C=CCN8CC[C@]64[C@@H]87)C[C@H]([C@H]1O2)[C@H]35
- IC50 (K562 [5]): 56.2 µM
- IC50 (HL-60 [6]): 56.2 µM

Compound: C/C=C1/CN(C)[C@H]2Cc3c([nH]c4ccccc34)[C@H](c3ccc4[nH]c5c(c4c3)CCN3C[C@@H]4C[C@H](CC)[C@H]3[C@@H]5C4)C[C@H]1[C@@H]2C(=O)OC
- IC50 (MCF7 [1]): < 10 µM
- IC50 (A549 [2]): < 10 µM

Compound: O=C(NCC(=O)c1c[nH]c2cc(Br)ccc12)NC(=O)c1c[nH]c2cc(O)ccc12
- IC50 (K562 [3]): > 90 µM
- IC50 (A549 [4]): > 90 µM

Compound: CC[C@]12CCCN3CCc4c(n(c5ccccc45)[C@@H](c4cc5c(cc4OC)NC4=C(C(=O)OC)C[C@]6(CC)CCCN7CC[C@@]45[C@@H]76)C1)[C@@H]32
- IC50 (MCF7 [7]): 3.24 µM
- IC50 (HL-60 [8]): 3.24 µM
- IC50 (SW480): 3.24 µM
- IC50 (A549 [9]): 3.24 µM
- IC50 (SMMC-7721): 3.24 µM

Compound: CO[C@@]1(C(=O)c2c[nH]c3ccccc23)N=C(c2c[nH]c3ccccc23)C(=O)N1
- IC50 (K562 [3]): 24.2 µM
- IC50 (A549 [4]): 24.2 µM

Compound: CC[C@@H]1CN(C)[C@H]2Cc3c([nH]c4ccccc34)[C@H](c3ccc4[nH]c5c(c4c3)CCN3[C@H](CC(C)=O)[C@@H]4C[C@@H](CC)[C@H]3[C@]5(C(=O)OC)C4)C[C@H]1[C@@H]2C(=O)OC
- IC50 (MCF7 [1]): 10.9 µM
- IC50 (A549 [2]): 10.9 µM

Compound: O=C(c1nc(-c2c[nH]c3cc(Br)ccc23)c[nH]1)c1c[nH]c2cc(O)ccc12 [BROMOTOPSENTIN]
- IC50 (AGS): 1.1 µg/mL (≈ 2.61 µM)
- IC50 (L1210): 1.1 µg/mL (≈ 2.61 µM)

Compound: O=C1NC[C@H](c2c[nH]c3cc(Br)ccc23)N=C1c1c[nH]c2cc(Br)ccc12 [HAMACANTHIN B]
- IC50 (AGS): 1.1 µg/mL (≈ 2.26 µM)
- IC50 (L1210): 1.1 µg/mL (≈ 2.26 µM)
